Like-named read-outs stand apart in the source and are kept apart here.
Columns and labels:
blood glucose [1] = assay: Glucose tolerance test with an oral dose of conjugate (FIG. 4); format: in vivo, rodents; settings: for effect on blood glucose after glucose gavage: 30 minutes before glucose gavage, monitored 90 minutes (FIG. 4 legend)
Protocol: Each subject was then monitored for blood glucose over the 90 minutes after receiving the glucose gavage.
A population of 30 healthy rodents without diabetic symptoms were obtained, and were divided into six treatment groups: one group of 5 rodents received 2 IU/kg of insulin by intraperitoneal injection 30 minutes prior to a glucose gavage; one group received 100 IU/kg of insulin by via oral gavage 30 minutes prior to a glucose gavage; […] gavage; one group of 5 […] gavage and one group of five rodents were given only a glucose gavage. Blood glucose of all rodents were then monitored over 90 minutes post-glucose gavage.

blood glucose [2] = assay: Oral glucose tolerance test (oGTT), SC-INS versus QD-INS (FIG. 5); format: in vivo, C57BL/6 mice; settings: oral gavage 20 IU/kg, 30 minutes before oGTT
Protocol: A further study was carried out on healthy rodents without diabetic symptoms comparing a saline subcutaneous injection (control), a subcutaneous injection of insulin (SC-INS, 2 IU/kg), or an oral gavage of oral-insulin (QD-INS, 20 IU/kg) 30 minutes before a glucose tolerance test (oGTT).

blood glucose [3] = assay: Insulin tolerance test in diabetic NOD/Scid mouse model (FIG. 8); format: in vivo, NOD/Scid mice; settings: oral gavage versus subcutaneous injection
Protocol: NOD mice with a blood glucose below […] were treated with SC-INS (1 IU/kg) or QD-INS (25 IU/kg) at time 0, mice with a blood glucose above […] were treated with 4 IU/kg SC-INS or 100 IU/kg QD-INS. Blood glucose samples were collected at −15, 0, 15, 30, 45 and 60 mins. […] Data points showing the mean±SD.
Blood glucose was measured used a handheld Glucometer using Accu-check proforma strips. Blood was collected by tail vein sampling following a tail snip. Blood glucose was collected at −15, 0, 15, 30, 45 and 60 mins after a subcutaneous (SC) insulin injection (0.1, 1 or 2 IU/kg) or a gavage of QD-insulin conjugates (10, 20, 30, 40, 50, 75 or 100 IU/kg).

[4] = in vivo, po
Protocol: (§1) Conjugates of radiolabeled insulin and quantum dots were produced in a method as described above, albeit with radiolabeled insulin used instead of native insulin. Two groups of healthy rodents were then orally administered either a dose of conjugates or equivalent radiolabeled unbound insulin. The distribution of radioactivity was then monitored 30 minutes after administration.

[5] = Biodistribution of ^14C radiolabelled insulin (FIG. 6); settings: for main location of radiolabelled insulin: after 30 minutes, mice fasted 4 hours
Protocol: Tissue samples and blood plasma were prepared for radiolabel component analysis according to standard methods. Data is presented in this figure is as a percentage of radiolabel insulin relative to the administrated dosage, data is shown as mean±SD.
Three mice treatment groups were fasted for 4 hours before given either an oral gavage of insulin (Oral INS), a subcutaneous injection of insulin (SC-INS) or an oral gavage of QD-insulin conjugate (QD-INS) at 2 IU/kg doses.

[6] = Uptake of radiolabeled insulin-quantum dot conjugate after oral administration; settings: 30 minutes after oral administration, healthy rodents
Protocol: as §1

Substance	effect on blood glucose after glucose gavage (blood glucose [1]; oral gavage equivalent to 20 IU/kg insulin)	blood glucose lowering effects compared with the injected insulin (blood glucose [1]; orally administered)	blood glucose lowering, no spike after glucose gavage (blood glucose [1]; quantum dot insulin group, oral, 30 minutes prior to glucose gavage (Example 3))	lowering of blood glucose levels in oGTT compared with injected insulin (SC-INS, 2 IU/kg) (blood glucose [2])	QD-insulin dose relative to the SC-insulin dose that resulted in similar glucose reductions (blood glucose [3])	radioactive label found in the liver [4]	blood glucose lowering, no spike after glucose gavage (blood glucose [1]; 2 IU/kg by intraperitoneal injection 30 minutes prior to glucose gavage (Example 3))	effect on blood glucose after glucose gavage (blood glucose [1]; intraperitoneal injection equivalent to 0.1 IU/kg insulin)	main location of radiolabelled insulin ([5]; oral gavage 2 IU/kg)	main location of radiolabelled insulin ([5]; subcutaneous injection 2 IU/kg)	location of radiolabelled insulin ([5]; after 2 hours, oral gavage 2 IU/kg)	radiolabelled insulin located in the liver ([5]; after 2 hours, subcutaneous injection 2 IU/kg)	radioactive label found in the liver [6]
QD-insulin: Ag2S quantum dot conjugated to insulin by EDC/NHS, then assembled with chitosan with galactose or glucose biopolymer	reduced the blood glucose of the rodent subjects by an approximately equivalent amount	equal, if not better	effective in lowering blood glucose	as effective	about 25 times	Approximately 50%	–	–	–	–	–	–	–
insulin	–	–	–	–	–	–	effective in lowering blood glucose	reduced the blood glucose of the rodent subjects by an approximately equivalent amount	mainly located in the small bowel	found in the liver and blood	still located in the bowel	about 50%	approximately 1%
